pEC50: −log10 of the molar value.

Series [1] deals with T1, Sphingosine 1-phosphate receptor 1 (Homo sapiens, UniProt P21453). Put plainly: Agonist activity at S1P1 (unknown origin) expressed in human HEK293/Galpha15 cells assessed as Ca2+ activation at 1 uM measured for 2 hrs by FLIPR analysis relative to control. Format: functional, cell-based.
Series [2] is described as follows: Microsomal stability in rat liver microsomes assessed as parent compound remaining preincubated for 5 mins followed by NADPH addition measured after 30 mins by LC-MS/MS analysis. Format: ADME, Microsome. The note with it: time 35 min, read-out: Stability.
Series [3] in a line: Microsomal stability in mouse liver microsomes assessed as parent compound remaining preincubated for 5 mins followed by NADPH addition measured after 30 mins by LC-MS/MS analysis. The note with it: time 35 min, read-out: Stability. The class given is ADME, Microsome.
Series [4] in a line: Microsomal stability in human liver microsomes assessed as parent compound remaining preincubated for 5 mins followed by NADPH addition measured after 30 mins by LC-MS/MS analysis. The class given is ADME, Microsome. The note with it: time 35 min, read-out: Stability.
The target in series [5] is T1, Sphingosine 1-phosphate receptor 1. Put plainly: Agonist activity at S1P1 (unknown origin) expressed in PathHunter CHO-K1 EDG1 beta-arrestin cells assessed as beta-arrestin2 recruitment incubated for 90 mins by chemiluminescence based assay. Format: functional, cell-based.
For series [6] the target is unchanged. The experiment in a line: Agonist activity at S1P1 (unknown origin) expressed in PathHunter CHO-K1 EDG1 beta-arrestin cells assessed as beta-arrestin2 recruitment at 1 uM incubated for 90 mins by chemiluminescence based assay relative to control. The class given is functional, cell-based. The following applies: filed as agonist.
The target is the same in series [7]. The experiment in a line: Agonist activity at S1P1 (unknown origin) expressed in human HEK293/Galpha15 cells assessed as Ca2+ activation measured for 2 hrs by FLIPR analysis. Format: functional, cell-based.
Series [8] deals with T2, CYP1A2 (Homo sapiens, UniProt P05177).
T2 sequence (P05177 whole entry): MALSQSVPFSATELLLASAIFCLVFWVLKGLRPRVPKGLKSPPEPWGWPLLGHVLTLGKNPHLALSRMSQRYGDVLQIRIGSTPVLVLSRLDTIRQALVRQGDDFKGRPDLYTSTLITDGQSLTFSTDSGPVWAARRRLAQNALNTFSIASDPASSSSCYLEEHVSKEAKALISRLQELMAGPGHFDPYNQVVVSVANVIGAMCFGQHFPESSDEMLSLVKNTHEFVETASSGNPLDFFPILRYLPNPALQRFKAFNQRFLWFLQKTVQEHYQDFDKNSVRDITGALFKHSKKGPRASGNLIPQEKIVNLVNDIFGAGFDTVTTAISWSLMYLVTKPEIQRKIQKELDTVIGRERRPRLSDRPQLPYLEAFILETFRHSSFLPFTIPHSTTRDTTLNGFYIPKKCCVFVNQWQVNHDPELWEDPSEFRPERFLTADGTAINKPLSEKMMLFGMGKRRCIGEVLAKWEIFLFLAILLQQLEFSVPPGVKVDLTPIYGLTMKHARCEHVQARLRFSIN
The experiment in a line: Inhibition of CYP1A2 in human liver microsomes using phenacetin as substrate assessed as residual activity at 10 uM preincubated for 5 mins followed by substrate addition and measured after 15 mins in presence of NADPH by LC-MS/MS analysis. Format: ADME, Microsome. The note with it: probe phenacetin, time 20 min, read-out: Activity.

Series [9] has as its target CYP2C9 (Homo sapiens, UniProt P11712). Put plainly: Inhibition of CYP2C9 in human liver microsomes using diclofenac as substrate assessed as residual activity at 10 uM preincubated for 5 mins followed by substrate addition and measured after 15 mins in presence of NADPH by LC-MS/MS analysis. The class given is ADME, Microsome. The following applies: probe diclofenac, time 20 min, read-out: Activity.

The nature of series [10]: Microsomal stability in rat liver microsomes assessed as parent compound remaining preincubated for 5 mins followed by NADPH addition measured after 60 mins by LC-MS/MS analysis. The class given is ADME, Microsome. The following applies: time 65 min, read-out: Stability.
The nature of series [11]: Microsomal stability in human liver microsomes assessed as parent compound remaining preincubated for 5 mins followed by NADPH addition measured after 60 mins by LC-MS/MS analysis. Format: ADME, Microsome. The following applies: time 65 min, read-out: Stability.
Series [12] in a line: Microsomal stability in mouse liver microsomes assessed as parent compound remaining preincubated for 5 mins followed by NADPH addition measured after 60 mins by LC-MS/MS analysis. The class given is ADME, Microsome. The note with it: time 65 min, read-out: Stability.
The target in series [13] is CYP3A4 (Homo sapiens, UniProt P08684). The experiment in a line: Inhibition of CYP3A4 in human liver microsomes using midazolam as substrate assessed as residual activity at 10 uM preincubated for 5 mins followed by substrate addition and measured after 15 mins in presence of NADPH by LC-MS/MS analysis. The class given is ADME, Microsome. The following applies: probe midazolam, time 20 min, read-out: Activity.
CYP3A4, sequence (P08684 whole entry): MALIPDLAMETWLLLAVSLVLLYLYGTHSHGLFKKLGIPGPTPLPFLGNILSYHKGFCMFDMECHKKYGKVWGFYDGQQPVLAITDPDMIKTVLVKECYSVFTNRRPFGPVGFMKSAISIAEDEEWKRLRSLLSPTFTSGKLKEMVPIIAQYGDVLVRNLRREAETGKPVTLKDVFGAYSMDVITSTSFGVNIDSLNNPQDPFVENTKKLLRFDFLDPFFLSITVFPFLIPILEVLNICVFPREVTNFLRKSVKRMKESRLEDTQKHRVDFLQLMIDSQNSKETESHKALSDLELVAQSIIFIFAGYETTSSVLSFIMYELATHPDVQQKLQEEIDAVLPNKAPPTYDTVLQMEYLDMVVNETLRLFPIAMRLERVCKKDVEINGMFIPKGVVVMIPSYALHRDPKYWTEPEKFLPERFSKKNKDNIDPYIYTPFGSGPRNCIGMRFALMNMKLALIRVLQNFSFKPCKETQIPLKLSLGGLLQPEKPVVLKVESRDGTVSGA

In series [14] the target is CYP2D6 (Homo sapiens, UniProt P10635). The experiment in a line: Inhibition of CYP2D6 in human liver microsomes using dextromethorphan as substrate assessed as residual activity at 10 uM preincubated for 5 mins followed by substrate addition and measured after 15 mins in presence of NADPH by LC-MS/MS analysis. The note with it: probe dextromethorphan, time 20 min, read-out: Activity. Format: ADME, Microsome.
CYP2D6, sequence (P10635 whole entry): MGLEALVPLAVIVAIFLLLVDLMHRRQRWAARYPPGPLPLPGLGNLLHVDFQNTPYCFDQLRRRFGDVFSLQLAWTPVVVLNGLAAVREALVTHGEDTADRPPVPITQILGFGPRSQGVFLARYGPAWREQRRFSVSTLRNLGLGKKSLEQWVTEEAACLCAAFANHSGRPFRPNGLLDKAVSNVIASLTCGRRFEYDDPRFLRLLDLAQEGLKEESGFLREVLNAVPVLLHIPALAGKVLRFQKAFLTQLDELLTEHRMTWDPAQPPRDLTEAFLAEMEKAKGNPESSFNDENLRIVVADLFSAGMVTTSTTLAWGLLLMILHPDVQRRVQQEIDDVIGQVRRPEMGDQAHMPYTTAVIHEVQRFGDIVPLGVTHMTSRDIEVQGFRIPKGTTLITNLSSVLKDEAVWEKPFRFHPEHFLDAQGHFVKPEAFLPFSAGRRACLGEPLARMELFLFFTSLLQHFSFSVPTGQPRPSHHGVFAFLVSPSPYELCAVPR

T1 sequence (P21453 whole entry): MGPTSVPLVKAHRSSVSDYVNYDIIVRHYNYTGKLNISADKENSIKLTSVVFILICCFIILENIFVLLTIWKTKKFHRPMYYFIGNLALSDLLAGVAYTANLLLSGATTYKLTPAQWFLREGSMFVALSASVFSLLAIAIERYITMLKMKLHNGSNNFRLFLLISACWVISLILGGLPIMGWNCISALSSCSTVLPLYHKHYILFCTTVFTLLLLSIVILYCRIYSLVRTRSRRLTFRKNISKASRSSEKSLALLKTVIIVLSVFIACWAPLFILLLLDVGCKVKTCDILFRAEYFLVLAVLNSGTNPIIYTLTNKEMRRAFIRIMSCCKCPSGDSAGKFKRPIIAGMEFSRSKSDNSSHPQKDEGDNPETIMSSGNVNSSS
CYP2C9, sequence (P11712 whole entry): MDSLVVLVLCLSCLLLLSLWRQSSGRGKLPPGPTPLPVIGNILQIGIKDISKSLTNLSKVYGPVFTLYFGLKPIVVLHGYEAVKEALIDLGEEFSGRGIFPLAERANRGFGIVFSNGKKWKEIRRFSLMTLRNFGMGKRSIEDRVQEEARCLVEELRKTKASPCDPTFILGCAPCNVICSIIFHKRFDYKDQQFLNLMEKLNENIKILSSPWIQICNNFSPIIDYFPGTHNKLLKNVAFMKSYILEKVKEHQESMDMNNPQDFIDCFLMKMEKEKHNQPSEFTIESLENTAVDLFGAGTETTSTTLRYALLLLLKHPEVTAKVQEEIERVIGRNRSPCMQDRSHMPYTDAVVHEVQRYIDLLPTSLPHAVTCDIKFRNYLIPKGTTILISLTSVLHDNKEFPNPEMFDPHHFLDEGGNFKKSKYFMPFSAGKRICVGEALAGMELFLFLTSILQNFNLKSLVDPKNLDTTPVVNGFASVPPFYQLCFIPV

In the case of `CC(C)Oc1ccc(COc2ccc3c(c2)CCN(C(=O)CCC(=O)N(C)C)C3)cc1C#N`, the Activity in series [1] worked out at 25%; in [6], 76%. Besides, the figures for the remaining at 0.5 h in series [2], in series [3] and in series [4] were 13.9%, 11.4% and 24.4%, respectively. The pEC50 in [5] was 6.25.
For the compound `CC(C)Oc1ccc(COc2ccc3c(c2)CCN(S(=O)(=O)CCC(=O)N(C)C)C3)cc1C#N`, the Activity was 4% in [1] and 98% in series [6]. In addition, the remaining at 0.5 h worked out at 18.7% in [2], 14.1% in [3] and 18.9% in [4]. Also, the pEC50 in series [5] is 6.34.
On to `CC(C)Oc1ccc(COc2ccc3c(c2)CCCN(S(=O)(=O)CCCO)C3)cc1C#N`, for which the pEC50 in series [7] was 6.30; in series [5] it was 7.02. In addition, the Activity in series [1] (filed as agonist) was 69%; in series [6], 81%. In addition, the activity at 0.25 h, 10 µM in series [8] stood at 100%; in [9] it was 67.7%; in [13], 82.4%; in series [14], 89.4%. Further, the remaining at 1 h in series [10] is 113%; in series [11], 16.2%; in [12], 8.7%.
As to `CC(C)Oc1ccc(COc2ccc3c(c2)OCCN(S(=O)(=O)CC(=O)O)C3)cc1C#N`, the pEC50 in [7] was 7.17; in series [5], 7.30. Further, the figures for the Activity in series [1] (filed as agonist) and in [6] were 104% and 91%, respectively. In addition, the activity at 0.25 h, 10 µM in series [8] turned out to be 88.1%; in series [9] it was 87%; in [13], 84.6%; in series [14], 91.1%. Also, the remaining at 1 h in series [10] stood at 99.6%; in series [11], 97.1%; in series [12] it was 87.7%.
Turning to `CC(C)Oc1ccc(COc2ccc3c(c2)CCN(S(=O)(=O)CCC(=O)O)C3C)cc1C#N` (configuration not stated), the Activity in [1] was 8%; in [6], 77%. The activity at 0.25 h, 10 µM in [8] turned out to be 93.2%; in series [9], 78.4%; in series [13], 92%; in series [14], 87.6%. Moreover, the remaining at 1 h turned out to be 90.8% in series [10], 100% in [11] and 89.7% in [12]. In addition, the pEC50 in series [5] was 6.10.
Take `CC(C)Oc1ccc(COc2ccc3c(c2)CCN(CCC(=O)O)C3)cc1C#N`: the results for the pEC50 in series [7] and in [5] were 6.61 and 6.71, respectively. Besides, the figures for the Activity in series [1] (filed as agonist) and in series [6] were 82% and 98%, respectively. The activity at 0.25 h, 10 µM was 85.1% in series [8], 92.2% in [9], 90.2% in [13] and 95.4% in [14]. The remaining at 0.5 h was 98.7% in series [3] and 99% in series [4].
For the compound `CC(C)Oc1ccc(COc2ccc3c(n2)CCN(S(=O)(=O)CCC(=O)O)C3)cc1C#N`, the values for the pEC50 in [7] and in series [5] were 6.65 and 6.54, respectively. The Activity in series [1] (filed as agonist) and in series [6] was 82% in each case. Also, the activity at 0.25 h, 10 µM in series [8] amounted to 84.5%; in [9], 80.1%; in series [13], 85.4%; in series [14], 85.3%. The figures for the remaining at 0.5 h in series [2], in series [3] and in series [4] were 98.1%, 94.2% and 96%, respectively.
Consider `CC(C)Oc1ccc(COc2ccc3c(c2)CCCN(S(=O)(=O)CC(=O)O)C3)cc1C#N`, for which the pEC50 in series [7] is 7.33; in series [5], 7.60. Besides, the Activity in [1] (filed as agonist) and in series [6] was 94% in each case. Moreover, the activity at 0.25 h, 10 µM in [8] came to 86.9%; in series [9], 86.1%; in [13], 87.7%; in series [14], 89.4%. Besides, the remaining at 1 h in series [10] stood at 73.6%; in series [11] it was 90.9%; in [12], 85.1%.
For `CC(C)Oc1ccc(COc2ccc3c(c2)CCN(C(=O)CCC(N)=O)C3)cc1C#N`, the figures for the negative logarithm of the EC50 (pEC50) in [7] and in [5] were 5.65 and 6.96, respectively. Also, the figures for the Activity in series [1] (filed as agonist) and in series [6] were 47% and 91%, respectively.
`CC(=O)NCCC(=O)N1CCc2cc(OCc3ccc(OC(C)C)c(C#N)c3)ccc2C1`: the negative logarithm of the EC50 (pEC50) in series [7] is 5.77; in series [5], 6.56. The results for the Activity in series [1] (filed as agonist) and in [6] were 41% and 117%, respectively. For the same compound, the remaining at 0.5 h in series [3] was found to be 14.9%; in series [4], 29.7%.
As to `CC(C)Oc1ccc(COc2ccc3c(c2)OCCN(S(=O)(=O)CCO)C3)cc1C#N`, the values for the pEC50 in series [7] and in [5] were 6.17 and 7.65, respectively. Besides, the values for the Activity in series [1] (filed as agonist) and in [6] were 65% and 96%, respectively.
Regarding `CC(C)Oc1ccc(COc2ccc3c(c2)CCN(CCCC(=O)O)C3)cc1C#N`, the pEC50 in series [7] and in [5] was 7.01 throughout. For the same compound, the figures for the Activity in [1] (filed as agonist) and in series [6] were 79% and 91%, respectively.
For `CC(C)Oc1ccc(COc2ccc3c(c2)OCCN(S(=O)(=O)CCC(=O)O)C3)cc1C#N`, the figures for the pEC50 in series [7] and in [5] were 7.17 and 7.54, respectively. For the same compound, the Activity was 83% in [1] (filed as agonist) and 109% in [6]. For the same compound, the activity at 0.25 h, 10 µM in series [8] stood at 71.2%; in [9], 70.7%; in [13] it was 68.8%; in [14] it was 73.6%. For the same compound, the remaining at 1 h in [10] was 92.9%; in [12], 90.5%.
For the compound `CC(C)Oc1ccc(COc2ccc3c(c2)CCN(C(=O)CCC(=O)O)C3)cc1C#N`, the pEC50 was 6.56 in series [7] and 6.34 in series [5]. The Activity in series [1] (filed as agonist) was found to be 79%; in series [6], 81%. In addition, the activity at 0.25 h, 10 µM in series [8] stood at 59.7%; in series [9] it was 27.6%; in series [13] it was 26.3%; in [14], 54.9%. In addition, the remaining at 0.5 h in series [2] was found to be 92.1%; in series [3], 100%; in series [4], 94.3%.
With `CNC(=O)CCS(=O)(=O)N1CCc2cc(OCc3ccc(OC(C)C)c(C#N)c3)ccc2C1`, the Activity turned out to be 4% in series [1] and 107% in series [6]. Further, the remaining at 0.5 h is 13.4% in series [2], 15.8% in [3] and 21.9% in [4]. In series [5], the pEC50 was 6.44.
Take `CC(C)Oc1ccc(COc2ccc3c(c2)OCCN(S(=O)(=O)CCCO)C3)cc1C#N`: the Activity was determined as 46% in series [1] (filed as agonist) and 92% in series [6]. Besides, the activity at 0.25 h, 10 µM stood at 70.2% in [8], 57.2% in series [9], 92.7% in [13] and 75.6% in [14]. Moreover, the remaining at 1 h in series [10] came out at 6.8%; in [11], 17.5%; in [12], 9.3%. The pEC50 in [5] is 7.13.
In the case of `CC(C)Oc1ccc(COc2ccc3c(c2)CCN(C(=O)CCNS(C)(=O)=O)C3)cc1C#N`, the Activity in series [1] turned out to be 23%; in series [6], 122%. The remaining at 0.5 h in series [2] was 41.7%; in [3], 42.8%; in series [4] it was 29.7%. In addition, in series [5], the pEC50 was 6.60.

These data come from ChEMBL document CHEMBL5346978, “Exploration of Tetrahydroisoquinoline- and Benzo[c]azepine-Based Sphingosine 1-Phosphate Receptor 1 Agonists for the Treatment of Multiple Sclerosis” (J Med Chem, 2023).
